Data taken from BindingDB's records for doi:10.7270/Q2G73C4V (Nmmlsc, 2010).

Target: T1, Regulator of G-protein signaling 8 (Homo sapiens, UniProt P57771)
T1 sequence (P57771 whole entry): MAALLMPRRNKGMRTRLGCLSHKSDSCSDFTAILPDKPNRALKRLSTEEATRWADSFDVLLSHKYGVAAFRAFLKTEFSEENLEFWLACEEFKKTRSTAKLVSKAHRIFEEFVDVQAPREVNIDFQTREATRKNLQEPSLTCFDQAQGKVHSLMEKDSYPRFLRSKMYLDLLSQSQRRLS
Experiment: RGS8-Galphao interaction modulators, SAR follow-up, biochemical, multiplex bead flow cytometry, SAR compounds (AID 2307)

Ki [nM]	Structure (SMILES)
100	O=C(COc1ccccc1C(=O)NN=Cc1ccc(O)c(O)c1)NN=Cc1ccc(O)c(O)c1 [N''-[(Z)-(3-hydroxy-4-oxo-1-cyclohexa-2,5-dienylidene)methyl]-2-[2-[[(Z)-(3-hydroxy-4-oxo-1-cyclohexa-2,5-dienylidene)methyl]hydrazo]-2-oxoethoxy]benzohydrazide]
20	NS(=O)(=O)c1ccc(N=NCc2ccc(O)c(O)c2O)c([N+](=O)[O-])c1 [4-[[(E)-(2,3-dihydroxy-4-oxo-1-cyclohexa-2,5-dienylidene)methyl]hydrazo]-3-nitrobenzenesulfonamide]
